According to article PMC4370687, “Functional Characterization of the 1,5-Benzodiazepine Clobazam and Its Major Active Metabolite N-Desmethylclobazam at Human GABAA Receptors Expressed in Xenopus laevis Oocytes” (PLoS ONE, 2015):
Marks after values point to notes of the source that are not given here.

Columns and labels:
human α1β2 GABAAR = biological target: T1, human α1β2 GABAAR (Homo sapiens, UniProt P14867+P47870); assay: Zinc-mediated inhibition of GABA EC80-evoked currents, TEVC in Xenopus oocytes; format: cell-based; settings: 100 μM Zn2+, 10 μM GABA (EC80), mean ± S.E.M.
T1 construct: expressed in transfected cells; host or cells: Xenopus laevis oocytes (cRNA injection, α1:β2 1:1)
T1 sequence (P14867 28-456): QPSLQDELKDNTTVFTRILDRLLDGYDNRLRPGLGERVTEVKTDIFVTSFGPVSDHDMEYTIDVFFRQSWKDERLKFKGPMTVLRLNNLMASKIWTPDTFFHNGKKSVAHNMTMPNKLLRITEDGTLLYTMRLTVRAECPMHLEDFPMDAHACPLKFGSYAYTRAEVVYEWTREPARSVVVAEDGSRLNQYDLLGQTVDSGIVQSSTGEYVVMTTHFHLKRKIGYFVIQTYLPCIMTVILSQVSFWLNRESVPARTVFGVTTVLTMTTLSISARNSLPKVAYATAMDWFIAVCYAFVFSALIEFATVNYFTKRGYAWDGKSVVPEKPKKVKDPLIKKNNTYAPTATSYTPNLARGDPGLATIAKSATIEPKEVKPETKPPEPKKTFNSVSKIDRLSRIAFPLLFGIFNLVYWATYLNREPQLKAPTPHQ
T1 sequence (P47870 26-474 isoform P47870-1 limits assumed): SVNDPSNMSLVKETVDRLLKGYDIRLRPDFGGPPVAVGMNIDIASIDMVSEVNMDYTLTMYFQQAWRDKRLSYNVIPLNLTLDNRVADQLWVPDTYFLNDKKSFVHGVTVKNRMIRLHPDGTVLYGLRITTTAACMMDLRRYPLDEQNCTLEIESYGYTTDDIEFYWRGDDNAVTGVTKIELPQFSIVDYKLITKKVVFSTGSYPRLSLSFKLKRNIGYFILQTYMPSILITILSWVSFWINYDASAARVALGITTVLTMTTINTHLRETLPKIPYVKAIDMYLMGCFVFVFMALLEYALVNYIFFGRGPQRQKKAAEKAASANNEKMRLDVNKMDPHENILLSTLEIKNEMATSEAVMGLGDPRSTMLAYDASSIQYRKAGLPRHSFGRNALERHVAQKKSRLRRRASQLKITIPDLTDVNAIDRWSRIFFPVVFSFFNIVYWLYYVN
Method: (§1) The cDNAs encoding the human GABAAR subunits were linearized with DraIII (α1, α2, α3, α5 and α6), SmaI (β2 and γ2S) or StuI (δ) and used as templates for in vitro cRNA synthesis using the T7 mMESSAGE mMACHINE High Yield Capped RNA Transcription Kit (Life Technologies Corporation, Carlsbad, CA, USA). Except where otherwise indicated, Xenopus oocytes were injected with 36.8 nL cRNA solution encoding for α1β2γ2S, α2β2γ2S, α3β2γ2S and α5β2γ2S GABAARs in a 1:1:1 α:β2:γ2S ratio (2.7 ng/μL of each subunit), with 46 nL cRNA solution encoding for the α6β2δ GABAAR in a 10:1:10 α6:β2:δ ratio (1:0.1:1 μg/μL), with 18 nL cRNA solution encoding for the α1β2 GABAAR in a 1:1 α1:β2 ratio (0.6:0.6 μg/μL), or with 46 nL cRNA encoding for α6β2 (α6:β2 ratio: 1:0.1 μg/μL). […]
(§2) Electrophysiological recordings were performed using the TEVC technique on Xenopus oocytes expressing various GABAAR combinations using a protocol adapted from previous studies. […] Cells were impaled with agar-plugged 0.5–1 MΩ electrodes containing 3 M KCl and voltage clamped at −70 mV by a Gene Clamp 500B amplifier (Axon Instruments, Union City, CA, USA) and recorded with pClamp 10 (Windows version, Molecular Devices, LLC, Sunnyvale, CA, USA). […] The recorded baseline-to-peak current amplitudes were analyzed using Clampfit 10.1 (Axon Instruments, Union City, CA, USA). […]

human α1β2γ2S GABAAR [1] = biological target: T2, human α1β2γ2S GABAAR (Homo sapiens, UniProt P14867+P18507+P47870); assay: as above; format: cell-based; design: expressed in transfected cells; host or cells: Xenopus laevis oocytes (cRNA injection, α:β2:γ2S 1:1:1); settings: 100 μM Zn2+, 100 μM GABA (EC80), mean ± S.E.M.
T2 sequence (P18507 40-467 isoform P18507-1 limits assumed, one chain of several): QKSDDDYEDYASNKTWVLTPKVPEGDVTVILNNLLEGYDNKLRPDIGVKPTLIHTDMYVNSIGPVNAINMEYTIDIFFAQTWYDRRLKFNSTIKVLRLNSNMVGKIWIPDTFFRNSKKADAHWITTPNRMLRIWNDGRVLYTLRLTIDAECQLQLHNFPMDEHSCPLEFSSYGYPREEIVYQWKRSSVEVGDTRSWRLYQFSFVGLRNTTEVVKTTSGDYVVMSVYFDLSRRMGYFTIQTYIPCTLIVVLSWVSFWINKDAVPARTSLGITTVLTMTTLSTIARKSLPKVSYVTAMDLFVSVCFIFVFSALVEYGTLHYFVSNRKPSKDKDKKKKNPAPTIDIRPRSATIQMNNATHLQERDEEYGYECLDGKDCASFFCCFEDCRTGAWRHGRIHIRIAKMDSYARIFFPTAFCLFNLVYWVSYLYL
Method: as §1, §2

human α2β2γ2S GABAAR = biological target: T3, human α2β2γ2S GABAAR (Homo sapiens, UniProt P18507+P47869+P47870); assay: Potentiation of GABA EC20-evoked currents, TEVC in Xenopus oocytes; format: cell-based; settings: for Imax ± S.E.M.: % of the response evoked by GABA EC20 (EC20 response = 100%)
T3 construct: expressed in transfected cells; host or cells: Xenopus laevis oocytes (cRNA injection, α:β2:γ2S 1:1:1; 1:1:5 in the zolpidem comparison)
T3 sequence (P47869 29-451, one chain of several): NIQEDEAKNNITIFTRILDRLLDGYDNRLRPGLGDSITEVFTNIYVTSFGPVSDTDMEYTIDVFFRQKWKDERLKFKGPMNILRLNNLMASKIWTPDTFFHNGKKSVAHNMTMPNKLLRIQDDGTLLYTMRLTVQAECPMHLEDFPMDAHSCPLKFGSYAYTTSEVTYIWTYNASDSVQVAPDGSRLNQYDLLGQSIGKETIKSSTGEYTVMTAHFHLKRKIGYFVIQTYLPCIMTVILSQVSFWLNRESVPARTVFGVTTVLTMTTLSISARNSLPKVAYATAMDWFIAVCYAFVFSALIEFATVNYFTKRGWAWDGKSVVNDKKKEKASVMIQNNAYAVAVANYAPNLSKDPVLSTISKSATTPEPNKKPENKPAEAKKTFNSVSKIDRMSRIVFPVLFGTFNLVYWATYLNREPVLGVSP
T3 sequence (P18507 40-467 isoform P18507-1 limits assumed, one chain of several): as the sequence (P18507 40-467 isoform P18507-1 limits assumed, one chain of several) above
Method: (§3) The cDNAs encoding the human GABAAR subunits were linearized with DraIII (α1, α2, α3, α5 and α6), SmaI (β2 and γ2S) or StuI (δ) and used as templates for in vitro cRNA synthesis using the T7 mMESSAGE mMACHINE High Yield Capped RNA Transcription Kit (Life Technologies Corporation, Carlsbad, CA, USA). Except where otherwise indicated, Xenopus oocytes were injected with 36.8 nL cRNA solution encoding for α1β2γ2S, α2β2γ2S, α3β2γ2S and α5β2γ2S GABAARs in a 1:1:1 α:β2:γ2S ratio (2.7 ng/μL of each subunit), with 46 nL cRNA solution encoding for the α6β2δ GABAAR in a 10:1:10 α6:β2:δ ratio (1:0.1:1 μg/μL), with 18 nL cRNA solution encoding for the α1β2 GABAAR in a 1:1 α1:β2 ratio (0.6:0.6 μg/μL), or with 46 nL cRNA encoding for α6β2 (α6:β2 ratio: 1:0.1 μg/μL). Following injection, the oocytes were incubated at 18°C in modified Barth’s solution [88 mM NaCl, 1 mM KCl, 15 mM HEPES (pH 7.5), 2.4 mM NaHCO3, 0.41 mM CaCl2, 0.82 mM MgSO4, 0.3 mM Ca(NO3)2, 100 U/mL penicillin and 100 μg/mL streptomycin]. Electrophysiological recordings were performed 3 to 6 days after injection.
(§4) Electrophysiological recordings were performed using the TEVC technique on Xenopus oocytes expressing various GABAAR combinations using a protocol adapted from previous studies. […] Cells were impaled with agar-plugged 0.5–1 MΩ electrodes containing 3 M KCl and voltage clamped at −70 mV by a Gene Clamp 500B amplifier (Axon Instruments, Union City, CA, USA) and recorded with pClamp 10 (Windows version, Molecular Devices, LLC, Sunnyvale, CA, USA). The oocytes were continuously perfused with Ringer buffer, and the test compounds were applied in the perfusate. Experiments were performed at room temperature and each data point represents the mean ± S.E.M. value of recordings performed on at least two oocytes from at least two different batches of oocytes. The recorded baseline-to-peak current amplitudes were analyzed using Clampfit 10.1 (Axon Instruments, Union City, CA, USA). […] The presence of δ in cell surface-expressed receptors in α6β2δ-injected oocytes was confirmed on a routinely basis using the δ-GABAAR selective PAM DS2 (1 μM). Furthermore, taking advantage of the differential sensitivity of αβ and αβδ receptors to Zn^2+ as antagonist, 1 μM ZnCl2 was used to verify that a homogenous population of ternary α6β2δ receptor complexes was expressed in these oocytes.
(§5) Two to five minutes of wash time between each application were permitted to overcome receptor desensitization. […] Concentration-response curves for the benzodiazepines were fitted using Equation 1.
To address this aspect, we compared the maximum responses mediated by saturating concentrations (3 μM) of clobazam, N-desmethylclobazam, and clonazepam at the GABAARs with the maximal responses mediated by a saturating concentration of diazepam, a 1,4-benzodiazepine often referred to as a “full benzodiazepine agonist”. […] We also compared the maximum degree of potentiation mediated by clobazam at the α2β2γ2S GABAAR with the maximal responses induced by a saturating concentration of zolpidem. […] In this experiment cRNA for α2β2γ2S was injected in a ratio of 1:1:5 (α2:β2:γ2S) to facilitate the expression of a homogenous population of γ2S-containing complexes.

human α1β2γ2S GABAAR [2] = biological target: T2, human α1β2γ2S GABAAR; assay: cell-based
Method: (§6) Electrophysiological recordings were performed using the TEVC technique on Xenopus oocytes expressing various GABAAR combinations using a protocol adapted from previous studies [44, 45]. […] Cells were impaled with agar-plugged 0.5–1 MΩ electrodes containing 3 M KCl and voltage clamped at −70 mV by a Gene Clamp 500B amplifier (Axon Instruments, Union City, CA, USA) and recorded with pClamp 10 (Windows version, Molecular Devices, LLC, Sunnyvale, CA, USA). The oocytes were continuously perfused with Ringer buffer, and the test compounds were applied in the perfusate. Experiments were performed at room temperature and each data point represents the mean ± S.E.M. value of recordings performed on at least two oocytes from at least two different batches of oocytes. The recorded baseline-to-peak current amplitudes were analyzed using Clampfit 10.1 (Axon Instruments, Union City, CA, USA).

rat α3β3γ2L GABAAR = settings: patch clamp, cited from earlier work; for EC50: 3 μM GABA (EC10–EC20), HEK-293T cells; for Imax: % of the responses evoked by GABA EC10–EC20, HEK-293T cells
[3] = humans; cited from earlier work
human α6β2δ GABAAR = biological target: T4, human α6β2δ GABAAR (Homo sapiens, UniProt P47870+Q16445); assay: Potentiation of GABA EC20-evoked currents, TEVC in Xenopus oocytes; format: cell-based; settings: for EC50: co-applied with GABA EC20, N-desmethylclobazam value estimated, curve not saturated at 1 mM
T4 construct: expressed in transfected cells; host or cells: Xenopus laevis oocytes (cRNA injection, α6:β2:δ 10:1:10)
T4 sequence (Q16445 20-453, one chain of several): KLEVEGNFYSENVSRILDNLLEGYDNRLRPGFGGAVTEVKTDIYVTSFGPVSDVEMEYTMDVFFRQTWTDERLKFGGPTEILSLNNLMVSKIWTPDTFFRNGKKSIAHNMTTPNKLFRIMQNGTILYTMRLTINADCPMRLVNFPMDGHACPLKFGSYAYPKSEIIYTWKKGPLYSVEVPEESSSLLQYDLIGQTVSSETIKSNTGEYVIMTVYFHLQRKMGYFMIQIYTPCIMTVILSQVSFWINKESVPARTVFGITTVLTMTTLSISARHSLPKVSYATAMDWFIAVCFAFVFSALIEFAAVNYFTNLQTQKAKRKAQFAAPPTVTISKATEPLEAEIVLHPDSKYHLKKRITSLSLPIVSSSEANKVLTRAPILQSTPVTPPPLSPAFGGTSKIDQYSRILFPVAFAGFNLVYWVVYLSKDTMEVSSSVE
T4 sequence (O14764 25-452 partner, one chain of several): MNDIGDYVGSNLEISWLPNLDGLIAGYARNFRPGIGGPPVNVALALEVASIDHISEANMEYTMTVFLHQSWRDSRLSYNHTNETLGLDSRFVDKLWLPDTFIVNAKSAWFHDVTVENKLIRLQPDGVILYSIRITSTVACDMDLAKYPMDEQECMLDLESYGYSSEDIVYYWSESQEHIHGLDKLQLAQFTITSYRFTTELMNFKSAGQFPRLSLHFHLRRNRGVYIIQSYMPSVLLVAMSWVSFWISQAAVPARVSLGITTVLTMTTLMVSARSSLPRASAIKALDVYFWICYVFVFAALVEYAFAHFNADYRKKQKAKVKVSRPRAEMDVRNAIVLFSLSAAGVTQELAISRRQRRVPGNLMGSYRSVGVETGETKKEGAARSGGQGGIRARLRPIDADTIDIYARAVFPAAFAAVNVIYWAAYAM
Method: as §3, §4, §5

human α5β2γ2S GABAAR = biological target: T5, human α5β2γ2S GABAAR (Homo sapiens, UniProt P18507+P31644+P47870); assay: as above; format: cell-based; settings: for Imax ± S.E.M.: % of the response evoked by GABA EC20 (EC20 response = 100%)
T5 construct: expressed in transfected cells; host or cells: Xenopus laevis oocytes (cRNA injection, 1:1:1)
T5 sequence (P31644 32-462, one chain of several): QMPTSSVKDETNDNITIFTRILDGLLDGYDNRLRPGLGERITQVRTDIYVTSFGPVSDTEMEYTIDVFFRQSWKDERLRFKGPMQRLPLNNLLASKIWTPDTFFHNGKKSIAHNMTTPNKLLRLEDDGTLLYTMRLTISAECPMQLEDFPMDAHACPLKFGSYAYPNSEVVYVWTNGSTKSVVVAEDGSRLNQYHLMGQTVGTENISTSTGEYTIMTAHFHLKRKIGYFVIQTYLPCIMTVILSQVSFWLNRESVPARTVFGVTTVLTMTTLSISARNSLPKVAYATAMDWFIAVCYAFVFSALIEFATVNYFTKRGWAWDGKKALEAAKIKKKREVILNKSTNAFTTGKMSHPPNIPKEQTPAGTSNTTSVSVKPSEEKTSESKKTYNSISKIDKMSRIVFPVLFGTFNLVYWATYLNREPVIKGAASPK
T5 sequence (P18507 40-467 isoform P18507-1 limits assumed, one chain of several): as the sequence (P18507 40-467 isoform P18507-1 limits assumed, one chain of several) above
Method: as §3, §4, §5

human α6β2 GABAAR = biological target: T6, human α6β2 GABAAR (Homo sapiens, UniProt P47870+Q16445); assay: as above; format: cell-based
T6 construct: expressed in transfected cells; host or cells: Xenopus laevis oocytes (cRNA injection)
T6 sequence (Q16445 20-453, one chain of several): as the sequence (Q16445 20-453, one chain of several) above
Method: as §3, §4, §5

human α3β2γ2S GABAAR = biological target: T7, human α3β2γ2S GABAAR (Homo sapiens, UniProt P18507+P34903+P47870); assay: as above; format: cell-based; settings: for Imax ± S.E.M.: % of the response evoked by GABA EC20 (EC20 response = 100%)
T7 construct: expressed in transfected cells; host or cells: Xenopus laevis oocytes (cRNA injection, 1:1:1)
T7 sequence (P34903 29-492, one chain of several): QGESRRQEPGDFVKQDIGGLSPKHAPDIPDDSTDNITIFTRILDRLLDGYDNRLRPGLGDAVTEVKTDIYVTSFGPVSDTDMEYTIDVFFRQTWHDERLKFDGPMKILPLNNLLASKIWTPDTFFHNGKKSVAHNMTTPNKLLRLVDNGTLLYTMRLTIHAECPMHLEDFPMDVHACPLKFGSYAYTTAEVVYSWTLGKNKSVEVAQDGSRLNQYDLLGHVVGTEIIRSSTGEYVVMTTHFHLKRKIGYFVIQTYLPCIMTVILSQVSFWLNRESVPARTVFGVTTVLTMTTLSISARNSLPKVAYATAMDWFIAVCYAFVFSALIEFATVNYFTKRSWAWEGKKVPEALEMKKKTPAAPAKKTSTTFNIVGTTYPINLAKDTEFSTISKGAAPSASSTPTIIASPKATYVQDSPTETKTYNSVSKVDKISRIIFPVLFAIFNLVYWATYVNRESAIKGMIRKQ
T7 sequence (P18507 40-467 isoform P18507-1 limits assumed, one chain of several): as the sequence (P18507 40-467 isoform P18507-1 limits assumed, one chain of several) above
Method: as §3, §4, §5

[4] = tested on: human α1,2,3,5β2γ2S GABAARs; settings: cited from earlier work
human α1β2γ2S GABAAR [5] = biological target: T2, human α1β2γ2S GABAAR; settings: for Imax ± S.E.M.: % of the response evoked by GABA EC20 (EC20 response = 100%)
Method: as §6

[6] = 1 mM compound, in % of the GABA EC20 response, curve not saturated

Row | SMILES | EC50 (human α1β2γ2S GABAAR [2]) | EC50 (human α2β2γ2S GABAAR) | Imax ± S.E.M. (human α2β2γ2S GABAAR) | EC50 (rat α3β3γ2L GABAAR) | Imax (rat α3β3γ2L GABAAR) | EC50 (human α6β2δ GABAAR; EC50, PAM) | EC50 (human α5β2γ2S GABAAR) | Imax ± S.E.M. (human α5β2γ2S GABAAR) | EC50 (human α3β2γ2S GABAAR) | Imax ± S.E.M. (human α3β2γ2S GABAAR) | Imax ± S.E.M. (human α1β2γ2S GABAAR [5]) | also measured
1 | [Cl-].[Cl-].[Zn+2] [Zn^2+, ZnCl2] | – | – | – | – | – | – | – | – | – | – | – | degree of inhibition of GABA EC80-evoked currents (human α1β2 GABAAR): 77 ± 6.3%; degree of inhibition of GABA EC80-evoked currents (human α1β2γ2S GABAAR [1]): 4.7 ± 4.6%
2 | Cc1ccc(-c2nc3ccc(C)cn3c2CC(=O)N(C)C)cc1 [zolpidem] | – | – | – | – | – | – | – | – | – | – | – | fold potentiation of GABA EC20-evoked currents (human α2β2γ2S GABAAR; saturating concentration (3 μM)): 2.7 fold
3 | O=C1CC(=O)N(c2ccccc2)c2cc(Cl)ccc2N1 [N-desmethylclobazam] | 151 nM | 138 nM | 270 ± 20% | 550 nM | 270% | ~300000 nM | 98 nM | 233 (248 and 217) ^b % | 282 nM | 270 ± 27% | 203 ± 8.5% | plasma half-life [3]: 79 h; fold potentiation of the GABA EC20-evoked response (human α6β2δ GABAAR; 1 mM compound, curve not saturated): ~24 fold; current evoked by 1 mM (given instead of Imax) (human α6β2δ GABAAR; [6]): 2420 ± 210 ^a %; EC50 (human α6β2 GABAAR): ~300000 nM; current evoked by 1 mM (given instead of Imax) (human α6β2 GABAAR; [6]): 2350 ± 200 ^a %; fold higher binding affinity at α2β2γ2S compared to α1β2γ2S [4]: 4.3 fold
4 | O=C1CN=C(c2ccccc2Cl)c2cc([N+](=O)[O-])ccc2N1 [clonazepam] | 15.5 nM | 7.4 nM | 253 ± 17% | 90 nM | 263% | 29000 nM | 20.9 nM | 255 ± 25% | 16 nM | 316 (334 and 297) ^b % | 209 ± 14% | fold more potent than N-desmethylclobazam as a PAM (human α2β2γ2S GABAAR; EC50 ratio): 19 fold; fold more potent than clobazam as a PAM (human α2β2γ2S GABAAR; EC50 ratio): 19 fold; Imax ± S.E.M. (human α6β2δ GABAAR; % of the response evoked by GABA EC20 (EC20 response = 100%)): 283 ± 38%; EC50 (human α6β2δ GABAAR; pEC50 ± S.E.M., PAM): 29500 nM; fold more potent than N-desmethylclobazam as a PAM (human α5β2γ2S GABAAR; EC50 ratio): 5 fold; fold more potent than clobazam as a PAM (human α5β2γ2S GABAAR; EC50 ratio): 8 fold; fold more potent than N-desmethylclobazam as a PAM (human α3β2γ2S GABAAR; EC50 ratio): 18 fold; fold more potent than clobazam as a PAM (human α3β2γ2S GABAAR; EC50 ratio): 15 fold; fold more potent than N-desmethylclobazam as a PAM (human α1β2γ2S GABAAR [5]; EC50 ratio): 10 fold; fold more potent than clobazam as a PAM (human α1β2γ2S GABAAR [5]; EC50 ratio): 9 fold
5 | CN1C(=O)CN=C(c2ccccc2)c2cc(Cl)ccc21 [diazepam] | – | – | – | – | 508% | – | – | – | – | – | – | –
